The target of data set [1] is PD-1/PD-L1 interaction (Jurkat/NF-κB-luc/PD1 cells cocultured with Raji-PD-L1 cells) (Homo sapiens (Human), UniProt Q9NZQ7). As to the kind of experiment: Jurkat reporter gene cellular assay. The class given is cell-based. The settings on record: NF-κB-luc reporter activation fold, OKT3 1 μg/mL, 6 hrs; read-out: Cell activity EC50. The method, then:
The effect of compounds of the examples of the present invention on the PD-1/PD-L1 interaction expressed on cell surfaces and the related influence on T cell functions were determined by a Jurkat reporter gene cellular assay. Briefly, the reporter gene plasmid of NF-κB-luc and the plasmid of human PD-1 were transfected into Jurkat cells to establish a stably transfected cell line capable of stably expressing both PD-1 and NF-κB-Luc reporter genes; the expression level of PD-1 on the cell surface was confirmed by flow cytometry; and the expression of the reporter gene was confirmed via the response of the reporter gene stimulated by OKT-3 and Raji cells.
In addition, the plasmid of human PD-L1 was transfected into Raji cells to obtain a cell line capable of stably expressing PD-L1. Jurkat/NF-κB-luc/PD1 cells and Raji-PD-L1 cells were then cocultured and stimulated with OKT-3. On this basis, the compounds were added, and the enhancement of the signal pathway of T cell activation by the inhibitory effect of the compounds on the PD-1/PD-L1 interaction was evaluated by readings of reporter gene responses.
A general note: A reporter such as luciferase makes a cellular process visible.

Data set [2] is described as follows: Caco-2 membrane permeability test. The settings on record: human, Caco-2, pH 7.4. For orientation: Caco-2 monolayers are a common model of the intestinal barrier.
Method: (§6) The permeability and the efflux ratio of the compounds of the examples of the present invention and the comparative compounds were evaluated using a Caco-2 cell model in this experiment. The specific process was as follows: • 1) The Caco-2 cell culture medium was modified Eagle's medium (MEM) containing 10% inactivated fetal bovine serum and 1% nonessential amino acids.
(§7) Working solutions were obtained by diluting with Hank's balanced salt solution (HBSS, Invitrogen) containing 25 mM HEPES (pH 7.4). The detection concentration of the test compound was 10 μM. This study was a two-way permeation experiment from the apical side to the basolateral side (A−B) and from the basolateral side to the apical side (B−A), and a 90-minute incubation at 37° C. was required. After the incubation, the samples diluted with buffer were detected by LC-MS/MS. The concentrations of the compounds were quantified using a standard curve. • 4) Apparent permeability coefficient Papp value (cm/s):
The nature of data set [3]: Pharmacokinetics in mice (exposure and oral availability). The data set is classed as in vivo. The settings on record: male, mouse, ICR mice; for bioavailability: PO (10 mpk) vs IV (2 mpk), read-out: Oral availability (F %). The text has this: (§1) The purpose of this study is to study the pharmacokinetic behaviors of some compounds of the present invention, and administration routes were: single per oral administration (PO) or intravenous injection (IV) to ICR mice or rats.
(§2) The compounds used in this test were compounds of specific examples of the present invention and the comparative compounds listed.
ICR mice male N=9 original source: Shanghai Sippr-BK Laboratory Animal Co. Ltd.
(§3) The compounds were each dissolved in a corresponding vehicle, mixed well by shaking and subjected to ultrasonic treatment to obtain colorless clear solutions. 9 mice and 3 rats were orally administered with the solution after fasting overnight. The mice were dosed at 10 mg/kg (or 2 mg/kg by IV) and the rats were dosed at 5 mg/kg (or 1 mg/kg by IV).
(§4) With about 90 μL/time point, blood was drawn from the submaxillary vein, and heparin sodium was added for anticoagulation. The blood samples were placed onto the ice and centrifuged (centrifugation conditions: 8000 rpm, 6 min, 2-8° C.) within 1 hr to isolate the plasmas. The time points for blood sampling were at 0 hrs, 0.25 hrs, 0.5 hrs, 1 hr, 2 hrs, 4 hrs, 6 hrs, 8 hrs and 24 hrs after administration. The samples were stored in a refrigerator at −20° C.
(§5) 40 μL of plasma sample was added to 160 μL of cold acetonitrile containing an internal standard, and the mixture was vortexed for 3 min and centrifuged at 11,000 rpm for 5 min. 100 μL of the supernate was added to 100 μL of water, and 5 μL of the mixed solution was loaded for LC-MS/MS analysis. For comparative compounds 1, 3, 5, the prodrug compounds and corresponding prototype compounds 2, 4, 6 were all analyzed, and specific analysis results are shown in Table 4.

The nature of data set [4]: Pharmacokinetics in rats (exposure and oral availability). The data set is classed as in vivo. The settings on record: male, ICR, rat; for bioavailability: PO (5 mpk) vs IV (1 mpk), read-out: Oral availability (F %).
Excerpt: as §1, §2
ICR rats male N=3 original source: Shanghai Sippr-BK Laboratory Animal Co. Ltd.
as §3, §4, §5

In the next data set the target is PD-1/PD-L1 interaction (Homo sapiens (Human), UniProt Q9NZQ7). As to the kind of experiment: PD1-PDL1 HTRF binding activity test. The settings on record: Cisbio PD-1/PD-L1 binding assay kit. As for the experimental part:
The effect of compounds of the examples of the present invention on the PD-1/PD-L1 interaction was determined by the PD-1/PD-L1 binding assay kit from Cisbio (#64ICP01PEG or 64ICP01PEH).
In general terms: Time-resolved FRET reads energy transfer from a long-lived donor to a nearby acceptor.

In data set [5] the test system is Caco-2 cells. Kind of data set: Caco-2 membrane permeability test. The settings on record: Caco-2, summary of Table 2.
Method: as §6, §7
Data set [6] relates to Caco-2 cells.
Method: as §6, §7
The nature of another data set: in vitro. The settings on record: human, Caco-2, pH 7.4.
Where [7] appears, read: 10 mg/kg, PO (10 mpk), dosed compound detected in plasma.
Where [8] appears, read: 5 mg/kg, PO (5 mpk), dosed compound detected in plasma.

Chain of PD-1/PD-L1 interaction (Jurkat/NF-κB-luc/PD1 cells cocultured with Raji-PD-L1 cells) (Q9NZQ7 19-290): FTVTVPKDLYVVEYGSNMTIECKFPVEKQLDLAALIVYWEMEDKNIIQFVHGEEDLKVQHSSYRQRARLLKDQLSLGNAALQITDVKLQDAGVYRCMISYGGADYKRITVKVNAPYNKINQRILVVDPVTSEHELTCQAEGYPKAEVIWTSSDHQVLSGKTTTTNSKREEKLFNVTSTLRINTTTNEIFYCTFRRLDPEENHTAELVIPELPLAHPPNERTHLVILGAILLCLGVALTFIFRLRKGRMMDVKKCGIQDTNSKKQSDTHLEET
Chain of PD-1/PD-L1 interaction (Q9NZQ7 19-238): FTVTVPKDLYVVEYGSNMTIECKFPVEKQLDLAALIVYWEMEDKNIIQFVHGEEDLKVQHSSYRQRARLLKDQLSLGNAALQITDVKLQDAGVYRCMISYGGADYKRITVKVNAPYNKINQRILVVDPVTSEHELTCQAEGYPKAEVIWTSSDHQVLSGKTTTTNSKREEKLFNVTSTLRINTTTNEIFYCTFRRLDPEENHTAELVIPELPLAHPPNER
Method for in vitro: as §6, §7

Consider `Cc1c(NC(=O)c2cc(C3CC3)c(CNC34CCC(C(=O)O)(CC3)CC4)cn2)cccc1-c1cccc(NC(=O)c2cc(C3CC3)c(CNC34CCC(C(=O)O)(CC3)CC4)cn2)c1C` [Example 1, 4-(((6-((3′-(5-(((4-carboxybicyclo[2.2.2]octan-1-yl)amino)methyl) -4-cyclopropylpicolinamido)-2,2′-dimethyl-[1,1′-biphenyl]-3-yl)carbamoyl)-4-cyclopropylpyridin-3-yl)methyl)amino)bicyclo[2.2.2]octane-1-carboxylic acid], for which the EC50 in data set [1] was 135 nM. This molecule came in with a Papp A→B at 90 min, 10 μM in data set [2] of 2.46 ×10⁻⁶ cm/s. Besides, the Papp B→A at 90 min, 10 μM in data set [2] is 16.5 ×10⁻⁶ cm/s. Besides, the efflux ratio at 90 min, 10 μM in data set [2] came out at 6.75. For the same molecule, the AUC(0-t) came out at 8790 ng·h/mL in data set [3] (setting [7]); 9000 ng·h/mL in data set [3] (plasma, 2 mg/kg, IV (2 mpk)); 2220 ng·h/mL in data set [4] (setting [8]); 2350 ng·h/mL in data set [4] (plasma, 1 mg/kg, IV (1 mpk)). Further, the Cmax in data set [3] (setting [7]) worked out at 1910 ng/mL; in data set [3] (plasma, 2 mg/kg, IV (2 mpk)) it was 4000 ng/mL; in data set [4] (setting [8]) it was 426 ng/mL; in data set [4] (plasma, 1 mg/kg, IV (1 mpk)), 3540 ng/mL. In addition, the bioavailability in data set [3] (plasma, 10 mg/kg) was 19.5%; in data set [4] (plasma, 5 mg/kg), 18.9%. The molecule also registered an IC50 on PD-1/PD-L1 interaction of 2.56 nM.

Take `Cc1c(NC(=O)c2cc(C3CC3)c(CN3CC[C@H](C(=O)O)C3)cn2)cccc1-c1cccc(NC(=O)c2cc(C3CC3)c(CN3CC[C@H](C(=O)O)C3)cn2)c1C` [compound 6]: the “A−B membrane permeability (in words)” value in the data set with Caco-2 cells [5] is reported as “poor membrane permeability”. Further, in data set [2], the apical-to-basolateral permeability (Papp A→B) at 90 min, 10 μM was 0.34 ×10⁻⁶ cm/s; the Papp B→A at 90 min, 10 μM is 5.51 ×10⁻⁶ cm/s; the efflux ratio at 90 min, 10 μM came to 16.3. Further, in data set [3] (setting [7]), the AUC(0-t) turned out to be 147 ng·h/mL and the Cmax worked out at 46.2 ng/mL.

Regarding `Cc1c(NC(=O)c2cc(C3CC3)c(CN[C@H](CO)C(=O)O)cn2)cccc1-c1cccc(NC(=O)c2cc(C3CC3)c(CN[C@H](CO)C(=O)O)cn2)c1C` [compound 2, reference compound], the “A−B membrane permeability (in words)” value with Caco-2 cells [5] was “poor membrane permeability”. Besides, in data set [2], the Papp A→B at 90 min, 10 μM was 0.67 ×10⁻⁶ cm/s; the apparent permeability from basolateral to apical (Papp B→A) at 90 min, 10 μM was 0.36 ×10⁻⁶ cm/s; the efflux ratio at 90 min, 10 μM was found to be 0.53. Further, in data set [3] (plasma, 2 mg/kg, IV (2 mpk)), the AUC(0-t) came to 2360 ng·h/mL and the Cmax was determined as 5640 ng/mL. Further, in data set [3] (plasma, 10 mg/kg), the bioavailability is 0%. Moreover, in data set [4] (plasma, 1 mg/kg, IV (1 mpk)), the exposure AUC(0-t) was 7640 ng·h/mL and the Cmax amounted to 13200 ng/mL.

On to `CC[C@H]1OC(=O)[C@H](C)[C@@H](O[C@H]2C[C@@](C)(OC)[C@@H](O)[C@H](C)O2)[C@H](C)[C@@H](O[C@@H]2O[C@H](C)C[C@H](N(C)C)[C@H]2O)[C@](C)(O)C[C@@H](C)C(=O)[C@H](C)[C@@H](O)[C@]1(C)O` [Erythromycin, erythromycin], for which the Evaluation of permeability result with Caco-2 cells [6] is listed as “High efflux”. Besides, in “in vitro”, the apical-to-basolateral permeability (Papp A→B) at 90 min, 10 μM was 0.2 ×10⁻⁶ cm/s; the Papp B→A at 90 min, 10 μM was 21.6 ×10⁻⁶ cm/s; the efflux ratio at 90 min was found to be 107.

`Cc1c(NC(=O)c2cc(C3CC3)c(CNC34CCC(C(=O)O)(CC3)C4)cn2)cccc1-c1cccc(NC(=O)c2cc(C3CC3)c(CNC34CCC(C(=O)O)(CC3)C4)cn2)c1C` [Example 2, 4,4′-((((((2,2′-dimethyl-[1,1′-biphenyl]-3,3′-diyl)bis(azanediyl))bis(carbonyl))bis (4-cyclopropylpyridine-6,3-diyl))bis(methylene))bis(azanediyl))bis(bicyclo[2.2.1]heptane-1-carboxylic acid)]: the EC50 in data set [1] was found to be 151 nM. The IC50 on PD-1/PD-L1 interaction was found to be 3.67 nM.

`COCCc1ccc(OCC(O)CNC(C)C)cc1` (centres unmarked) [Metoprolol, metoprolol]: the Evaluation of permeability entry in the data set on Caco-2 cells [6] was “High”. In addition, in the data set “in vitro”, the Papp A→B at 90 min, 10 μM was 24.7 ×10⁻⁶ cm/s; the Papp B→A at 90 min, 10 μM is 31.1 ×10⁻⁶ cm/s; the efflux ratio at 90 min came out at 1.26.

Consider `Cc1c(NC(=O)c2cc(C3CC3)c(CNCC34CCC(C(=O)O)(CC3)C4)cn2)cccc1-c1cccc(NC(=O)c2cc(C3CC3)c(CNCC34CCC(C(=O)O)(CC3)C4)cn2)c1C` [Example 4, 4,4′-(((((((2,2′-dimethyl-[1,1′-biphenyl]-3,3′-diyl)bis(azanediyl))bis(carbonyl))bis(4-cyclopropylpyridine-6,3-diyl))bis(methylene))bis(azanediyl))bis(methylene))bis(bicyclo[2.2.1]heptane-1-carboxylic acid)], for which the EC50 in data set [1] turned out to be 247 nM. In data set [2], the Papp A→B at 90 min, 10 μM amounted to 9.79 ×10⁻⁶ cm/s. Also, the Papp B→A at 90 min, 10 μM in data set [2] amounted to 21.7 ×10⁻⁶ cm/s. Further, in data set [2], the efflux ratio at 90 min, 10 μM worked out at 2.21. For the same molecule, the AUC(0-t) is 17600 ng·h/mL in data set [3] (setting [7]); 6110 ng·h/mL in data set [3] (plasma, 2 mg/kg, IV (2 mpk)); 4840 ng·h/mL in data set [4] (setting [8]); 2200 ng·h/mL in data set [4] (plasma, 1 mg/kg, IV (1 mpk)). In addition, the peak concentration (Cmax) came to 4550 ng/mL in data set [3] (setting [7]); 3520 ng/mL in data set [3] (plasma, 2 mg/kg, IV (2 mpk)); 1980 ng/mL in data set [4] (setting [8]); 1860 ng/mL in data set [4] (plasma, 1 mg/kg, IV (1 mpk)). The bioavailability in data set [3] (plasma, 10 mg/kg) was 57.5%; in data set [4] (plasma, 5 mg/kg) it was 44%. Also, the IC50 at PD-1/PD-L1 interaction was 1.46 nM.

In data set [2], `COC(=O)[C@@H](CO)NCc1cnc(C(=O)Nc2cccc(-c3cccc(NC(=O)c4cc(C5CC5)c(CN[C@H](CO)C(=O)OC)cn4)c3C)c2C)cc1C1CC1` [compound 1, reference compound] gave an apical-to-basolateral permeability (Papp A→B) at 90 min, 10 μM of under 2.28 ×10⁻⁶ cm/s and a Papp B→A at 90 min, 10 μM of under 1.85 ×10⁻⁶ cm/s. Besides, in data set [3] (plasma, 10 mg/kg), the bioavailability came to 0%. Besides, the bioavailability in data set [4] (plasma, 5 mg/kg) turned out to be 0%.

On to `Cc1c(NC(=O)c2cc(C3CC3)c(CNCC(=O)O)cn2)cccc1-c1cccc(NC(=O)c2cc(C3CC3)c(CNCC(=O)O)cn2)c1C` [compound 4], for which the “A−B membrane permeability (in words)” value in the data set on Caco-2 cells [5] was “poor membrane permeability”. In data set [2], this molecule came in with a Papp A→B at 90 min, 10 μM of under 0.24 ×10⁻⁶ cm/s and a basolateral-to-apical permeability (Papp B→A) at 90 min, 10 μM of 0.98 ×10⁻⁶ cm/s.

As to `COC(=O)[C@H]1CCN(Cc2cnc(C(=O)Nc3cccc(-c4cccc(NC(=O)c5cc(C6CC6)c(CN6CC[C@H](C(=O)OC)C6)cn5)c4C)c3C)cc2C2CC2)C1` [compound 5], in data set [2], the Papp A→B at 90 min, 10 μM was under 1.79 ×10⁻⁶ cm/s and the Papp B→A at 90 min, 10 μM was under 0.65 ×10⁻⁶ cm/s. The highest level in data set [3] (setting [7]) (Cmax) was 30.4 ng/mL.

Turning to `Cc1c(NC(=O)c2cc(C3CC3)c(CN(C)C34CCC(C(=O)O)(CC3)C4)cn2)cccc1-c1cccc(NC(=O)c2cc(C3CC3)c(CN(C)C34CCC(C(=O)O)(CC3)C4)cn2)c1C` [Example 3, 4,4′-((((((2,2′-dimethyl-[1,1′-biphenyl]-3,3′-diyl)bis(azanediyl))bis(carbonyl))bis(4-cyclopropylpyridine-6,3-diyl))bis(methylene))bis(methylazanediyl))bis(bicyclo[2.2.1]heptane-1-carboxylic acid)], in data set [1], the EC50 came out at 1380 nM. On PD-1/PD-L1 interaction, this molecule had an IC50 of 4.62 nM.

With `CCOC(=O)CNCc1cnc(C(=O)Nc2cccc(-c3cccc(NC(=O)c4cc(C5CC5)c(CNCC(=O)OCC)cn4)c3C)c2C)cc1C1CC1` [compound 3, reference compound], the bioavailability in data set [3] (plasma, 10 mg/kg) worked out at 0%.

The term EC50 denotes the concentration at which the effect is half-maximal. By Papp A→B is commonly meant how fast a substance crosses the layer from the apical side. A higher Papp A→B goes with fast passage. In general, Papp B→A refers to the apparent permeability from the basolateral to the apical side of a cell layer. Broadly, the efflux ratio is the permeability from basolateral to apical divided by that in the opposite direction, in the common usage. The term AUC(0-t) denotes the area under the concentration-time curve up to a stated or last time point. High values mean high exposure, low ones low exposure. As a reminder, the Cmax is the highest concentration seen after dosing. Usually IC50 stands for the concentration needed to halve the response being measured.
